Data as given in patent publication US7709526B2, “Use of cyclolignans and new cyclolignans” (Biovitrum AB, priority 2001, dated 2010).

Legend:
malignant cells = assay: Cell death in malignant cells; format: cell-based
[1] = tested on: MCF-7 breast cancer cells; assay: Cell viability (XTT), MCF-7; format: cell-based, human; details: Homo sapiens, MCF7, 48 h
Method: (§1) Cell proliferation kit II (Roche Inc.) is based on calorimetric change of the yellow tetrazolium salt XTT in orange formazan dye by the respiratory chain of viable cells (Roehm, N W, et al., J Immunol Methods 142:257-265, 1991). Cells seeded at a concentration of 5000/well in 100 μl medium in a 96-well plate were treated with different drugs in the given concentration. After 24 or 48 h the cells were incubated, according to the manufacturer's protocol, with XTT labelling mixture. After 4 h the formazan dye is quantified using a scanning multiwell spectrophotometer with a 495-nm filter. The absorbance is directly correlated with number of viable cells. The standard absorbance curve was drawn by means of untreated cells seeded at a concentration of from 1000 to 10 000 cells/well with an increasing rate of 1000 cells/well. All standards and experiments were performed in triplicates.
5 different types of cell lines were seeded in 96-well plates (medium volume in a well was 100 μl), at a concentration of 10,000 cells/cm^2 in Minimal Essential Medium supplemented with fetal calf serum. When the cells had reached a concentration of 65,000 cells/cm^2, they were treated with different doses of podophyllotoxin and deoxypodophyllotoxin for 48 h. Cell viability was then assayed (see above). […]

[2] = tested on: cells devoid of insulin-like growth factor-1 receptors; assay: Cell death in cells devoid of IGF-1R; format: cell-based
[3] = tested on: K562/S chronic myeloid leukemia cells; assay: Viability of leukemia cells, K562/S; format: cell-based, human; details: Homo sapiens, 72 h, read-out: IC50 for viability of leukemia cell lines
Method: The human chronic myeloid leukemia K562/S and K562/Vcr30 lines and the acute myeloid leukemia cell lines HL60/0 and HL60/Nov were obtained from ATCC. The K562/S and HL60/0 are wild type (non-resistant) cells, whereas K562/Vcr30 and HL60/Nov are cytostatic-resistant sublines. All leukemia cell lines were cultured in RPMI 1640 medium supplemented with 10% fetal bovine serum and with 2 mM glutamine, 1% benzyl-penicillin and streptomycin. The cells were grown in tissue culture flasks maintained at 95% air/5% CO2 atmosphere at 37° C. in a humidified incubator. For the experiments 25,000 cells were cultured in 60-mm plastic dishes or 96-well plastic plates. The experiments on leukemia cells were performed in collaboration with Associate professor Sigurd Vitols, Department of Pharmacology, Karolinska Hospital (Stockholm, Sweden).
as §1
The leukemia cell lines K562/S, K562/Vcr 30, HL60/0 and HL60/Nov were proven to express the IGF-1R. This was assayed by Western blotting analysis, as described in Methods and Experiment 1 and 2. The 4 leukemia cell lines were seeded in 96-well plates (medium volume in a well was 100 μl), in RPMI40 medium supplemented with fetal calf serum. After 24 h podophyllotoxin, deoxypodophyllotoxin and other derivatives were added at different concentrations for 72 h. Cell viability was then assayed (see above). IC50 values for each inhibitor and cell lines are shown below (Table 5). The results are based on 3 different experiments.

microtubules = details: cell free systems; cited from earlier work
IGF-1R = IGF-1R (Homo sapiens, UniProt P08069); assay: IGF-1R phosphorylation/autophosphorylation in intact FM55 melanoma cells (immunoprecipitation, Western blotting, OD); format: cell-based; design: The cells were then isolated and subjected to immuno-precipitation of the IGF-1R; endogenous in cells; host or cells: FM55 melanoma cells; details: for Level of IGF-1R phosphorylation in intact cells: OD, control cells = 100%
IGF-1R, sequence (P08069 31-1367): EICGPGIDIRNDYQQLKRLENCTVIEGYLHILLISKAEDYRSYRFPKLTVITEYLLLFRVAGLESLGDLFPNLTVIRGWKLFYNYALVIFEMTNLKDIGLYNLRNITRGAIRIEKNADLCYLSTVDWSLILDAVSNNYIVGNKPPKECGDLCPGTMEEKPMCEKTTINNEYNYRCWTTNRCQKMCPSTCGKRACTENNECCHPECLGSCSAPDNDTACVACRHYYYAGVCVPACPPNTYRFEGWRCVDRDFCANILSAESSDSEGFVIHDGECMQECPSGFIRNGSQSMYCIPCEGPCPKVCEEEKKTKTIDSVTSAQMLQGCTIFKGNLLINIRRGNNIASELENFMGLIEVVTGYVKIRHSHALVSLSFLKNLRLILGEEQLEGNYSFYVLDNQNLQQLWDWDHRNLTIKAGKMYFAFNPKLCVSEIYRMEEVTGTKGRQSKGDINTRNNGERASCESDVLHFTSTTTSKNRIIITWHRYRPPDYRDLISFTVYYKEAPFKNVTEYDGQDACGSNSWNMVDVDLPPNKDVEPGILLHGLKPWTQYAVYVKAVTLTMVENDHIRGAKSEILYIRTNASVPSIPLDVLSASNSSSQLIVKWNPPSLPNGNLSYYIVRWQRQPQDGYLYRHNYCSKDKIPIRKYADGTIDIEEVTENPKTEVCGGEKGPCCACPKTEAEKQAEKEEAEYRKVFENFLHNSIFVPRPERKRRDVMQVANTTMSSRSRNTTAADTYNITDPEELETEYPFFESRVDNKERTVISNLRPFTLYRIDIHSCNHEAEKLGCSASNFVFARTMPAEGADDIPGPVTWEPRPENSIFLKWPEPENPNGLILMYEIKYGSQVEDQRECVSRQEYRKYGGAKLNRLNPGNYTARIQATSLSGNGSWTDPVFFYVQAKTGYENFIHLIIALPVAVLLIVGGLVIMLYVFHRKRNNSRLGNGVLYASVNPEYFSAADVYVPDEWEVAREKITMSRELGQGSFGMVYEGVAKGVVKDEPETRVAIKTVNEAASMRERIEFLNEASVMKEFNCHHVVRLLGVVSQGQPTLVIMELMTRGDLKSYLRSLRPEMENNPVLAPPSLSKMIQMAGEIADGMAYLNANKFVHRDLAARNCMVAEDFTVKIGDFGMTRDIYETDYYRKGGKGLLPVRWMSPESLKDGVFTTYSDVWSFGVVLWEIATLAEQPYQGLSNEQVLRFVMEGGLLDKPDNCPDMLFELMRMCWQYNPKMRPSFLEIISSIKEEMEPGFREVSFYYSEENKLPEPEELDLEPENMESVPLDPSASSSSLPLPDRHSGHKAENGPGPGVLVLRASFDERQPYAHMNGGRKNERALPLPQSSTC
Method: The isolated cells were lyzed in 10 ml ice-cold PBSTDS containing protease inhibitors (Carlberg, M., et al., J Biol Chem 271:17453-17462, 1996). 50 μl protein A or G agarose was added in 1 ml sample and incubated for 15 min at 4° C. on an orbital shaker. After centrifugation for 10 min at 10,000 r/min at 4° C. the supernatant was saved. The protein content was determined by a dye-binding assay with a reagent purchased from Bio-Rad. Bovine serum albumin was used as a standard. 15 μl Protein G Plus agarose and 5 μl anti-IGF-1R were added. After a 3 h incubation at 4° C. on an orbital shaker the precipitate was collected by pulse centrifugation in a micro centrifuge at 14,000×g for 10 s. The supernatant was discarded and the pellet was washed 3 times with PBSTDS.
Protein samples were solved in a 2×-sample buffer containing Laemmli buffer and 0.5% […] and boiled for 5 min at 96° C. Samples were separated by SDS-PAGE with a 4% stacking gel and 7.5% separation gel. Molecular weight markers (Bio Rad, Sweden) were run simultaneously in all experiments.
Following SDS-PAGE the proteins were transferred overnight to nitro-cellulose membranes (Hybond, Amersham, UK) and then blocked for 1 h at room temperature in a solution of 4% skimmed milk powder and 0.02% Tween 20 in PBS, pH 7.5. Incubations with the primary antibodies were performed for 1 h at room temperature, followed by 3 washes with PBS with Tween and incubation with the second antibody for 1 h room temperature. After another 3 washes the membranes were incubated with Streptavidin-labelled horseradish peroxidase for 30 min and then detected using Amersham ECL system (Amersham, UK) The films were scanned by Fluor-S (BioRad).
Melanoma cells (line FM55) were seeded in 6-cm dishes, at a concentration of 10,000 cells/cm^2 in Minimal Essential Medium supplemented with 10% fetal calf serum (FCS). […] Treatment with 0 μM represents untreated controls. The cells were then isolated and subjected to immuno-precipitation of the IGF-1R. The immunoprecipitates, containing purified IGF-1R, were fractionated by gel electrophoresis. Phosphorylation of IGF-1R was detected by an anti-phosphotyrosine antibody using Western blotting. The obtained signals represent phosphorylated IGF-1R and the intensity of signals represents amounts of phosphorylated IGF-1R. Details of the methods used are described above. The intensities are quantified by a scanner, which measures the optical density (OD) of the signals. For the control cells the OD is set at 100%. The blank (OD 0%) represents the background. The results given in Table 1 below are mean values of 3 experiments.
FM 55 melanoma cells were cultured in the same way as described in Experiment 1. When reaching a density of 65,000 cells/cm^2 in the dishes, they were treated for 1 h with 0.05 μM podophyllotoxin, deoxypodophyllotoxin, acetylpodophyllotoxin, epipodophyllotoxin, 4′-demethyl-podophyllotoxin and podophyllotoxone. The cells were then harvested for assay and quantification of IGF-1R autophosphorylation as described above. The values shown in Table 2 represent means of 3 experiments.

[4] = tested on: receptor of fibroblast growth factor; assay: Tyrosine phosphorylation of fibroblast growth factor receptor; format: cell-based

SMILES: COc1cc([C@@H]2c3cc4c(cc3[C@H](O)[C@H]3COC(=O)[C@H]23)OCO4)cc(OC)c1OC [Podophyllotoxin, podophyllotoxin]
- cell death in malignant cells (in words) (malignant cells): extensive cell death
- IC50 [1]: 0.07 µM
- response of cells devoid of IGF-1R (in words) [2]: resistant
- IC50 [3]: 0.004 µM
- effect on microtubules (microtubules): required μM concentrations
- inhibition of IGF-1R phosphorylation (in words) (IGF-1R; FM55 cells, 0.05 μM, 1 h): potent inhibitors
- Inhibitory effect on IGF-1R autophosphorylation in intact cells in relation to podophyllotoxin, Relative potency (IGF-1R; FM55 cells, 0.05 μM, 1 h, podophyllotoxin = 1, mean of 3): 1
- Level of IGF-1R phosphorylation in intact cells (IGF-1R; FM55 cells, 1 μM, 1 h, mean of 3): 8%
- Level of IGF-1R phosphorylation in intact cells (IGF-1R; FM55 cells, 15 μM, 1 h, mean of 3): 4%
- Level of IGF-1R phosphorylation in intact cells (IGF-1R; FM55 cells, 60 μM, 1 h, mean of 3): 2%
- effect on IGF-1R phosphorylation (in words) (IGF-1R; FM55 cells, 1, 15, 60 μM, genistein statement at 60 μM): almost completely blocks
- concentration sufficient to inactivate the IGF-1R, fold lower than for the anti-microtubule effect (IGF-1R; compared to anti-microtubule effect): 100 fold
- interference with tyrosine phosphorylation of the receptor of fibroblast growth factor [4]: Neither do they interfere
